Measured values reported in patent US10227331B2 (priority 2015, dated 2019).

Columns and labels:
[1] = test system: P. aeruginosa expressing IMP-1, efflux− (MB9799); experiment: Efflux: concentration of MBL inhibitor which restores susceptibility to imipenem; type: cell-based, Pseudomonas aeruginosa; settings: imipenem at 2 μg/mL, in the presence of a class A, C, D serine β-lactamase inhibitor closely related to relebactam
Description: (§1) The strain background is Pseudomonas aeruginosa PAO1.

[2] = test system: P. aeruginosa expressing IMP-1, efflux+ (MB9798); type: cell-based, Pseudomonas aeruginosa; settings: for P. aeruginosa expressing IMP-1, efflux+ (MB9798) MITC95: imipenem at 2 μg/mL, in the presence of a class A, C, D serine β-lactamase inhibitor closely related to relebactam; for Efflux ratio: ratio MITC95 PA_9798/MITC95 PA_9799
Description: as §1

IMP-1 = IMP-1 (Serratia marcescens, UniProt P52699); experiment: biochemical; type: biochemical; settings: CCF2-FA substrate, 2 hours at 25° C; read-out: IMP-1 IC50
Procedure, shortened: (§2)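 Fluorescence assay of metallo-β-lactamase activity using CCF2-FA, a cephalosporin-linked 7-hydroxycoumarin–fluorescein substrate. Inhibitor, enzyme and substrate were incubated together for 2 hours at 25° C. IC50 came from a 4-parameter fit of inhibition versus inhibitor concentration.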

NDM-1 = NDM-1 (Klebsiella pneumoniae, UniProt C7C422); experiment: biochemical; type: biochemical; settings: CCF2-FA substrate, 2 hours at 25° C; read-out: NDM-1 IC50
Procedure, shortened: as §2

[3] = test system: Serratia marcescens expressing IMP-1 (CL5741); type: cell-based; settings: with imipenem 1 μg/ml, 95% inhibition of bacterial growth; for Serratia marcescens MITC95: IMP-1 (CL5741)
Procedure, shortened: (§3)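 Clinical strains grown overnight on blood agar, then diluted 1:100 in 1.1× CAMHB and exposed to test compound with imipenem at 1 μg/ml. Incubation was 22–24 h at 35° C; growth was read by absorbance to find the compound concentration restoring imipenem susceptibility.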

[4] = test system: Escherichia coli expressing NDM-1 (CLB30005, CLB30016); type: cell-based; settings: with imipenem 1 μg/ml, 95% inhibition of bacterial growth; for Escherichia coli MITC95: NDM-1 (CLB30016)
Procedure, shortened: as §3

[5] = test system: Klebsiella pneumoniae expressing VIM-1 (IHMA599644); type: cell-based; settings: with imipenem 1 μg/ml, 95% inhibition of bacterial growth; for Klebsiella pneumoniae MITC95: VIM-1 (IHMA599644)
Procedure, shortened: as §3

VIM-1 = VIM-1 (Pseudomonas aeruginosa (strain ATCC 15692 / DSM 22644 / CIP 104116 / JCM 14847 / LMG 12228 / 1C / PRS 101 / PAO1), UniProt A0A0F7KYQ8); experiment: biochemical; settings: CCF2-FA substrate, 2 hours at 25° C
Procedure, shortened: as §2

Sequence of IMP-1 (P52699 whole entry, looked up, species assumed): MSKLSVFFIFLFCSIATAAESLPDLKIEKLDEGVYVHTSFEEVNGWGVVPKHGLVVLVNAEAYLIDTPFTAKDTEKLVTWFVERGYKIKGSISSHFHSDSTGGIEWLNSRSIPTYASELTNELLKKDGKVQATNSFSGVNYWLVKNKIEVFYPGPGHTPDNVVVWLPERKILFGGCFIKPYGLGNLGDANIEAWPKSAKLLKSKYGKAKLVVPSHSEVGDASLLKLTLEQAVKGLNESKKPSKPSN
Sequence of NDM-1 (C7C422 whole entry, looked up, species assumed): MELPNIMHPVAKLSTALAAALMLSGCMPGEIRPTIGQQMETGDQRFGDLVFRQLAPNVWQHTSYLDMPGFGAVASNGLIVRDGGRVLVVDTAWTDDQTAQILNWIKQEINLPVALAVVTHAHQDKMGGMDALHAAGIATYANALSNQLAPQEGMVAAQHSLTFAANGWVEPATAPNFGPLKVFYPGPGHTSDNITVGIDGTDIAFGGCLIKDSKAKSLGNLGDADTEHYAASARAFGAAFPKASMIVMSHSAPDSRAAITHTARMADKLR

Row | Compound | P. aeruginosa expressing IMP-1, efflux− (MB9799) MITC95 [1] [µM] | P. aeruginosa expressing IMP-1, efflux+ (MB9798) MITC95 [2] [µM] | Efflux ratio [2] | IC50 (IMP-1) [nM] | IC50 (NDM-1) [nM] | Serratia marcescens MITC95 [3] [µM] | Escherichia coli MITC95 [4] [µM] | Klebsiella pneumoniae MITC95 [5] [µM] | IC50 (VIM-1) [nM] | Serratia marcescens expressing IMP-1 (CL5741) MITC95 [3] [µM] | Escherichia coli expressing NDM-1 (CLB30016) MITC95 [4] [µM] | Klebsiella pneumoniae expressing VIM-1 (IHMA599644) MITC95 [5] [µM]
1 | C[C@H](N)CS(=O)(=O)c1ccc(-c2cccc3[nH]c(C(=O)O)nc23)c(-c2nn[nH]n2)c1S(N)(=O)=O [Example 294, 4-(4-((S)-2-aminopropylsulfonyl)-3-sulfamoyl-2-(2H-tetrazol-5-yl)phenyl)-1H-benzo[d]imidazole-2-carboxylic Acid] | 1.563 | 1.563 | 1.00 | 0.35 | 0.0827 | 3.125 | 1.563 | 3.125 | 0.184 |  |  | 
2 | NCCS(=O)(=O)c1ccc(-c2cccc3sc(N)nc23)c(-c2nn[nH]n2)c1S(N)(=O)=O [Example 313, 3-(2-aminobenzo[d]thiazol-4-yl)-6-((2-aminoethyl)sulfonyl)-2-(2H-tetrazol-5-yl)benzenesulfonamide] | 0.8929 | 0.6138 | 0.69 | 0.257 | 0.155 | 1.228 | 1.618 | 2.009 | 0.232 |  |  | 
3 | NCCS(=O)(=O)c1ccc(-c2cccc3sc(NC(N)=O)nc23)c(-c2nn[nH]n2)c1S(N)(=O)=O [Example 85, 6-(2-aminoethylsulfonyl)-2-(2H-tetrazol-5-yl)-3-(2-ureidobenzo[d]thiazol-4-yl)benzenesulfonamide] | 0.7813 | 1.563 | 2.00 | 0.144 | 0.0511 |  |  |  | 0.0858 | 0.7813 | 0.3906 | 1.563
4 | NS(=O)(=O)c1c(S(=O)(=O)C2CNC2)ccc(-c2cccnc2N2CCOCC2)c1-c1nn[nH]n1 [Example 220, 6-(azetidin-3-ylsulfonyl)-3-(2-morpholinopyridin-3-yl)-2-(2H-tetrazol-5-yl) benzenesulfonamide] | 3.125 | 100 | 32.00 | 14.9 | 0.901 |  |  |  | 0.337 | 12.5 | 6.25 | 12.5
5 | CCOC(=O)N1CCC(S(=O)(=O)c2ccc(-c3cccc4nc(N)[nH]c34)c(-c3nn[nH]n3)c2S(N)(=O)=O)CC1 [Example 46, ethyl 4-(4-(2-amino-3H-benzo[d]imidazol-4-yl)-2-sulfamoyl-3-(2H-tetrazol-5-yl)phenylsulfonyl)piperidine-1-carboxylate] | 3.125 | 200 | 64.00 | 2.15 | 0.445 |  |  |  | 0.378 | 25 | 6.25 | 25
6 | Nc1nc2c(-c3ccc(S(=O)(=O)c4ccccc4)c(S(N)(=O)=O)c3-c3nnn[nH]3)cccc2s1 [Example 232, 3-(2-aminobenzo[d]thiazol-4-yl)-6-(phenylsulfonyl)-2-(1H-tetrazol-5-yl)benzenesulfonamide] | 1.563 | 12.5 | 8.00 | 0.586 | 0.583 |  |  |  | 0.539 | 3.125 | 6.25 | 12.5
7 | NCCS(=O)(=O)c1ccc(-c2ccc(N)nc2)c(-c2nn[nH]n2)c1S(N)(=O)=O [Example 321, 6-((2-aminoethyl)sulfonyl)-3-(6-aminopyridin-3-yl)-2-(2H-tetrazol-5-yl) benzenesulfonamide] | 0.6406 | 1.781 | 2.78 | 0.949 | 1.36 | 0.4453 | 0.125 | 1.281 | 1.01 |  |  | 
8 | NCCS(=O)(=O)c1ccc(-c2ccc3[nH]nc(C(F)(F)F)c3c2)c(-c2nnn[nH]2)c1S(N)(=O)=O.O=C(O)C(F)(F)F [Example 163, 2-((2-sulfamoyl-3-(1H-tetrazol-5-yl)-4-(3-(trifluoromethyl)-1H-indazol-5-yl)phenyl)sulfonyl)ethanaminium 2,2,2-trifluoroacetate] | 0.7813 | 100 | 127.99 | 1.22 | 0.98 |  |  |  | 0.12 | 3.125 | 1.563 | 3.125
9 | Cn1c(N)nc2c(-c3ccc(S(=O)(=O)C[C@@H](O)CN)c(S(N)(=O)=O)c3-c3nn[nH]n3)cccc21 [Example 363, (S)-3-(2-amino-1-methyl-1H-benzo[d]imidazol-4-yl)-6-((3-amino-2-hydroxypropyl)sulfonyl)-2-(2H-tetrazol-5-yl) benzenesulfonamide] | 0.7813 | 0.7813 | 1.00 | 0.425 | 0.275 | 0.7813 | 0.3906 | 1.563 | 0.356 |  |  | 
10 | NC(=O)CN1CC(S(=O)(=O)c2ccc(-c3cccc4[nH]c(N)nc34)c(-c3nn[nH]n3)c2S(N)(=O)=O)C1 [Example 50, 2-(3-(4-(2-amino-1H-benzo[d]imidazol-4-yl)-2-sulfamoyl-3-(2H-tetrazol-5-yl)phenylsulfonyl)azetidin-1-yl)acetamide] | 3.125 | 3.125 | 1.00 | 1.44 | 0.242 |  |  |  | 0.585 | 3.125 | 3.125 | 6.25
11 | N#CC1(c2ccc(-c3ccc(S(=O)(=O)CCN)c(S(N)(=O)=O)c3-c3nnn[nH]3)cn2)CNC1.O=C(O)C(F)(F)F [Example 132, 2-((4-(6-(3-cyanoazetidin-3-yl)pyridin-3-yl)-2-sulfamoyl-3-(1H-tetrazol-5-yl)phenyl)sulfonyl)ethanaminium 2,2,2-trifluoroacetate] | 1.563 | 6.25 | 4.00 | 1.49 | 3.5 |  |  |  | 1.55 | 1.563 | 0.7813 | 3.125
